# According to ChEMBL document CHEMBL1154255 (2009):
# Columns and labels:
# Assay type in all cases: functional
# SF-268 = assay: Growth inhibition of human SF268 cells after 48 hrs by sulforhodamine B assay; conditions: SF-268, 48 h
# DU-145 = assay: Growth inhibition of human DU145 cells after 48 hrs by sulforhodamine B assay; conditions: DU-145, 48 h
# KM-20L2 = assay: Growth inhibition of human KM20L2 cells after 48 hrs by sulforhodamine B assay; conditions: KM-20L2, 48 h
# MCF7 = assay: Growth inhibition of human MCF7 cells after 48 hrs by sulforhodamine B assay; conditions: MCF7, 48 h
# BXPC-3 = assay: Growth inhibition of human BxPC3 cells after 48 hrs by sulforhodamine B assay; conditions: BXPC-3, 48 h
# NCI-H460 = assay: Growth inhibition of human NCI-H460 cells after 48 hrs by sulforhodamine B assay; conditions: NCI-H460, 48 h
Compound,GI50 (SF-268) [µg/mL],GI50 (DU-145) [µg/mL],GI50 (KM-20L2) [µg/mL],GI50 (MCF7) [µg/mL],GI50 (BXPC-3) [µg/mL],GI50 (NCI-H460) [µg/mL]
COc1cc(/C=C/c2ccc(OC)c(O)c2O)cc(OC)c1O,> 10,> 10,> 10,5.5,> 10,> 10
COc1cc(/C=C/c2ccc(OC)c(OP(=O)([O-])[O-])c2OP(=O)([O-])[O-])cc(OC)c1OP(=O)([O-])[O-].[Na+].[Na+].[Na+].[Na+].[Na+].[Na+],> 10,> 10,> 10,> 10,> 10,> 10
COc1ccc(/C=C/c2cc(OC)c(O)c(OC)c2)cc1O,–,6.3,–,–,5,4.9
"COc1ccc(/C=C\c2cc(OC)cc(OC)c2)cc1 [8Z-3,4',5-TRIMETHOXYSTILBENE]",0.0044,0.0054,–,–,0.0034,0.0028
Oc1ccc(/C=C\c2cc(O)cc(O)c2)cc1 [CIS-RESVERATROL],5,–,22,–,–,–
COc1ccc(/C=C\c2cc(OC)c(OC)c(OC)c2)cc1O [COMBRETASTATIN A4],> 0.01,0.0008,0.34,–,0.39,0.0006
COc1ccc(/C=C/c2cc(OC)c(OC)c(OC)c2)cc1O [E-COMBRETASTATIN A-4],–,0.037,–,–,3.9,0.038
COc1ccc(/C=C/c2cc(OC)cc(OC)c2)cc1 [TRISMETHOXYRESVERATROL],0.56,1.5,–,–,0.35,0.62
